# Columns and labels:
# Assay in all cases: Test C preemergence
# Format in all cases: in vivo
# [1] = system: crabgrass, large (large crabgrass, Digitaria sanguinalis); details: for Plant response rating, Crabgrass, Large: scale 0 to 100, 0 no effect, 100 complete control
# Summary of the method: (§1)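 Preemergence application to seeds in loam/sand soil, or foliar (postemergence) application to plants 2–18 cm tall in peat moss/vermiculite medium; surfactant-containing non-phytotoxic solvent vehicle; greenhouse. Visual injury vs controls at 13–15 d; 0 = no effect, 100 = complete control.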
# [2] = system: oilseed rape (Brassica napus); details: for Plant response rating, Oilseed Rape: scale 0 to 100, 0 no effect, 100 complete control
# Summary of the method: as §1
# [3] = system: corn (Zea mays); details: for Plant response rating, Corn: scale 0 to 100, 0 no effect, 100 complete control
# Summary of the method: as §1
# [4] = system: soybean (Glycine max); details: for Plant response rating, Soybean: scale 0 to 100, 0 no effect, 100 complete control
# Summary of the method: as §1
# [5] = system: barnyardgrass (Echinochloa crus-galli); details: for Plant response rating, Barnyardgrass: scale 0 to 100, 0 no effect, 100 complete control
# Summary of the method: as §1
# [6] = system: waterhemp (common waterhemp, Amaranthus rudis); details: for Plant response rating, Waterhemp: scale 0 to 100, 0 no effect, 100 complete control
# Summary of the method: as §1
# [7] = system: velvetleaf (Abutilon theophrasti); details: for Plant response rating, Velvetleaf: scale 0 to 100, 0 no effect, 100 complete control
# Summary of the method: as §1
# [8] = system: foxtail, giant (giant foxtail, Setaria faberii); details: for Plant response rating, Foxtail, Giant: scale 0 to 100, 0 no effect, 100 complete control
# Summary of the method: as §1
# [9] = system: pigweed (Amaranthus retroflexus); details: for Plant response rating, Pigweed: scale 0 to 100, 0 no effect, 100 complete control
# Summary of the method: as §1
# [10] = system: ryegrass, Italian (Italian ryegrass, Lolium multiflorum); details: for Plant response rating, Ryegrass, Italian: scale 0 to 100, 0 no effect, 100 complete control
# Summary of the method: as §1
# [11] = system: ragweed (common ragweed, Ambrosia elatior); details: for Plant response rating, Ragweed: scale 0 to 100, 0 no effect, 100 complete control
# Summary of the method: as §1
# [12] = system: blackgrass (Alopecurus myosuroides); details: for Plant response rating, Blackgrass: scale 0 to 100, 0 no effect, 100 complete control
# Summary of the method: as §1
# [13] = system: morningglory (Ipomoea coccinea); details: for Plant response rating, Morningglory: scale 0 to 100, 0 no effect, 100 complete control
# Summary of the method: as §1
# [14] = system: nutsedge, yellow (yellow nutsedge, Cyperus esculentus); details: for Plant response rating, Nutsedge, Yellow: scale 0 to 100, 0 no effect, 100 complete control
# Summary of the method: as §1
# [15] = system: wheat (winter wheat, Triticum aestivum); details: for Plant response rating, Wheat: scale 0 to 100, 0 no effect, 100 complete control
# Summary of the method: as §1
# [16] = system: lambsquarters (Chenopodium album); details: for Plant response rating, Lambsquarters: scale 0 to 100, 0 no effect, 100 complete control
# Summary of the method: as §1
# [17] = system: Galium (catchweed bedstraw, Galium aparine); details: for Plant response rating, Galium: scale 0 to 100, 0 no effect, 100 complete control
# Summary of the method: as §1
# [18] = 31 g ai/ha, 0 is no effect, 100 is complete control
smiles,measurement,setting,value
CN1CC(c2ccc(F)c(C(F)(F)F)c2)C(C(=O)Nc2cccc(F)c2F)C1=O (centres unmarked) [Compound 613],"Plant response rating (scale of 0 to 100), Crabgrass, Large",[1]; [18],95
same,"Plant response rating, Crabgrass, Large",[1]; 62 g ai/ha,95
same,"Plant response rating, Crabgrass, Large",[1]; 125 g ai/ha,95
same,"Plant response rating, Crabgrass, Large",[1]; 250 g ai/ha,98
same,"Plant response rating (scale of 0 to 100), Oilseed Rape",[2]; [18],15
same,"Plant response rating, Oilseed Rape",[2]; 62 g ai/ha,70
same,"Plant response rating, Oilseed Rape",[2]; 125 g ai/ha,90
same,"Plant response rating, Oilseed Rape",[2]; 250 g ai/ha,90
same,"Plant response rating (scale of 0 to 100), Corn",[3]; [18],40
same,"Plant response rating, Corn",[3]; 62 g ai/ha,55
same,"Plant response rating, Corn",[3]; 125 g ai/ha,65
same,"Plant response rating, Corn",[3]; 250 g ai/ha,85
same,"Plant response rating (scale of 0 to 100), Soybean",[4]; [18],0
same,"Plant response rating, Soybean",[4]; 62 g ai/ha,0
same,"Plant response rating, Soybean",[4]; 125 g ai/ha,0
same,"Plant response rating, Soybean",[4]; 250 g ai/ha,0
same,"Plant response rating (scale of 0 to 100), Barnyardgrass",[5]; [18],90
same,"Plant response rating, Barnyardgrass",[5]; 62 g ai/ha,95
same,"Plant response rating, Barnyardgrass",[5]; 125 g ai/ha,95
same,"Plant response rating, Barnyardgrass",[5]; 250 g ai/ha,98
same,"Plant response rating (scale of 0 to 100), Waterhemp",[6]; [18],70
same,"Plant response rating, Waterhemp",[6]; 62 g ai/ha,75
same,"Plant response rating, Waterhemp",[6]; 125 g ai/ha,85
same,"Plant response rating, Waterhemp",[6]; 250 g ai/ha,90
same,"Plant response rating (scale of 0 to 100), Velvetleaf",[7]; [18],30
same,"Plant response rating, Velvetleaf",[7]; 62 g ai/ha,40
same,"Plant response rating, Velvetleaf",[7]; 125 g ai/ha,40
same,"Plant response rating, Velvetleaf",[7]; 250 g ai/ha,70
same,"Plant response rating (scale of 0 to 100), Foxtail, Giant",[8]; [18],95
same,"Plant response rating, Foxtail, Giant",[8]; 62 g ai/ha,95
same,"Plant response rating, Foxtail, Giant",[8]; 125 g ai/ha,95
same,"Plant response rating, Foxtail, Giant",[8]; 250 g ai/ha,98
same,"Plant response rating (scale of 0 to 100), Pigweed",[9]; [18],70
same,"Plant response rating, Pigweed",[9]; 62 g ai/ha,80
same,"Plant response rating, Pigweed",[9]; 125 g ai/ha,85
same,"Plant response rating, Pigweed",[9]; 250 g ai/ha,90
same,"Plant response rating (scale of 0 to 100), Ryegrass, Italian",[10]; [18],10
same,"Plant response rating, Ryegrass, Italian",[10]; 62 g ai/ha,25
same,"Plant response rating, Ryegrass, Italian",[10]; 125 g ai/ha,75
same,"Plant response rating, Ryegrass, Italian",[10]; 250 g ai/ha,95
same,"Plant response rating (scale of 0 to 100), Ragweed",[11]; [18],25
same,"Plant response rating, Ragweed",[11]; 62 g ai/ha,25
same,"Plant response rating, Ragweed",[11]; 125 g ai/ha,40
same,"Plant response rating, Ragweed",[11]; 250 g ai/ha,65
same,"Plant response rating (scale of 0 to 100), Blackgrass",[12]; [18],85
same,"Plant response rating, Blackgrass",[12]; 62 g ai/ha,85
same,"Plant response rating, Blackgrass",[12]; 125 g ai/ha,95
same,"Plant response rating, Blackgrass",[12]; 250 g ai/ha,95
same,"Plant response rating (scale of 0 to 100), Morningglory",[13]; [18],40
same,"Plant response rating, Morningglory",[13]; 62 g ai/ha,40
same,"Plant response rating, Morningglory",[13]; 125 g ai/ha,55
same,"Plant response rating, Morningglory",[13]; 250 g ai/ha,50
same,"Plant response rating (scale of 0 to 100), Nutsedge, Yellow",[14]; [18],0
same,"Plant response rating, Nutsedge, Yellow",[14]; 62 g ai/ha,0
same,"Plant response rating, Nutsedge, Yellow",[14]; 125 g ai/ha,10
same,"Plant response rating, Nutsedge, Yellow",[14]; 250 g ai/ha,20
same,"Plant response rating (scale of 0 to 100), Wheat",[15]; [18],25
same,"Plant response rating, Wheat",[15]; 62 g ai/ha,45
same,"Plant response rating, Wheat",[15]; 125 g ai/ha,65
same,"Plant response rating, Wheat",[15]; 250 g ai/ha,70
same,"Plant response rating (scale of 0 to 100), Lambsquarters",[16]; [18],25
same,"Plant response rating, Lambsquarters",[16]; 62 g ai/ha,60
same,"Plant response rating, Lambsquarters",[16]; 125 g ai/ha,50
same,"Plant response rating, Lambsquarters",[16]; 250 g ai/ha,75
same,"Plant response rating (scale of 0 to 100), Galium",[17]; [18],90
same,"Plant response rating, Galium",[17]; 62 g ai/ha,90
same,"Plant response rating, Galium",[17]; 125 g ai/ha,90
same,"Plant response rating, Galium",[17]; 250 g ai/ha,90

# Source: US12077503B2, “Substituted cyclic amides and their use as herbicides” (FMC CORPORATION, priority 2015, dated 2024)
